Measurements from patent US11912710B2 (UPPTHERA, INC., priority 2021, dated 2024).

Assays:
Type in all cases: cell-based
[1] = system: NCI-H526 cell line; assay: Cell viability assay for H526 cell line; settings: Homo sapiens, NCI-H526, 120 h; H526 cells, 5 days, EZ-Cytox, 3000 nM to 0.46 nM
Description: 3. Cell Viability Assay for H526 Cell Line
(1) Culture of NCI-H526 Cell Line
(2) Treatment of Compounds of the Present Invention and Method of Cell Viability Assay
After treating the compound to each well to make the total volume of 200 μL, it was cultured in a CO2 incubator (Thermo Fisher Science, Cat. No. 4111) for 5 days.
The absorbance of the completely cultured sample was measured by setting the wavelength of a plate reader (BMG Labtech, CLARIOstar Plus) to […], and was measured after shaking for 3 minutes in a plate reader before measurement.
In Table 3, Activity represents IC50 value of each Exemplary Compound treatment group to H526 cell line (A: <30 nM, B: <50 nM, C: <100 nM, D: <200 nM, E: <400 nM).

[2] = target: T1, PLK1 (Homo sapiens, UniProt P53350); assay: Luciferase assay for PLK1 in HeLa LgBit (Plk1-HiBit KI) cell line; settings: 300 nM compound, luminescence after 9 hours, read-out: Activity: ratio of the luminescense value of compound treatment group to DMSO treatment group
T1 construct: endogenous in cells; host or cells: HeLa LgBit (Plk1-HiBit KI): HeLa cells stably expressing LgBit, with HiBit knocked into the endogenous Plk1 locus by CRISPR/Cas9
Description: 2. Luciferase Assay for PLK1
(1) Preparation and Culture of HeLa LgBit (Plk1-HiBit KI) Cell Line
A HeLa cell line in which the LgBit vector was transfected and expressed stably was prepared. Then, after constructing gRNA and donor to express the HiBit amino acid sequence behind the C-terminal of the Plk1 gene, which was inherent in the cell, it was inserted into the cell together with a vector capable of expressing CRISPR/Cas9. Only the cells in which the insertion was completed and knock-in had progressed were selected, sub-cultured and used.
(2) Treatment of Compounds of the Present Invention and Method of Luciferase Assay
In the case of HeLa LgBit (Plk1-HiBit KI), the compounds were treated after being released after thymidine block, and the process was as follows. Thymidine (Sigma-Aldrich Cat. No. T9250-5G) was completely dissolved in DW and used in the experiment. For thymidine block, the products were treated with 2 mM of thymidine and then incubated for 24 hours. For release and chemical treatment, the medium was suctioned and washed with 1×PBS. TrypLE™ was added and incubated in 37° C. CO2 incubator for 5 min. Cells neutralized by adding complete media were counted through a counter. For each well of a 96-well culture plate (SPL), 3.3×10^4 cells and a total medium volume of 150 μL were seeded and incubated in a CO2 incubator.
Each cell line was incubated in a CO2 incubator for 18 hours, and Endurazine was added to each well to make up 4% of the total volume. After adding the compound of the present invention in a 96-well white plate (SPL) to a concentration of 300 nM, the wavelength of the plate reader (BMG Labtech, CLARIOstar Plus) was set to […], and then the luminescence was tracked in real time.
In Table 2, Activity represents the ratio of the luminescense value of each Exemplary Compound treatment group to DMSO treatment group (+++: <0.3, ++<0.6, +<0.7).

[3] = system: MRC-5 cell line; assay: Cell viability assay (cytotoxicity) for MRC-5 cell line; settings: Homo sapiens, MRC5, 120 h; MRC-5 normal cell line, 5 days, EZ-Cytox, 10000 nM to 1.52 nM; read-out: Activity: IC50 value to MRC-5 cell line (Exemplary Compounds)
Description: 4. Cell Viability Assay for MRC-5 Cell Line
(1) Culture of MRC-5 Cell Line
Passage of cultured cells was maintained within P15.
(2) Treatment of Compounds of the Present Invention
Then, it was cultured in 37° C.
(3) Cytotoxicity Experiment
CO2 incubator for 4 hours.
Cell Viability Assay for MRC-5 cell line

T1 sequence (P53350 whole entry): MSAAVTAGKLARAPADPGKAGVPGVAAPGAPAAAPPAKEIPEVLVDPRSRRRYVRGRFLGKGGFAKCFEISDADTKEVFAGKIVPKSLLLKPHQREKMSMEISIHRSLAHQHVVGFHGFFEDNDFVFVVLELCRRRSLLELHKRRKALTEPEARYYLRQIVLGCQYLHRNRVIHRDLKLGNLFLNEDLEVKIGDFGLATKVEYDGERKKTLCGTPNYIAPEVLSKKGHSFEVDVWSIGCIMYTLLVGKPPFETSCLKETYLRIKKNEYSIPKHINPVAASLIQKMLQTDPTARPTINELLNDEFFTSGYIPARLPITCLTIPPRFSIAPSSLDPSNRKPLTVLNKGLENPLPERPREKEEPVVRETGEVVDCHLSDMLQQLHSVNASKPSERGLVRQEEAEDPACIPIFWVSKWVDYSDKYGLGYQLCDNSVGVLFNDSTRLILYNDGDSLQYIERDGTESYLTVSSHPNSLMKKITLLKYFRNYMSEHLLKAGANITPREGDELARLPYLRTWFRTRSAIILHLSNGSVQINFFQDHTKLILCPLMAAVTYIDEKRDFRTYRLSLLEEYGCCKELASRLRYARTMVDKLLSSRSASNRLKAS

remaining activity at 0.3 µM [2] [%]	SMILES	IC50 [1] [µM]	IC50 [3] [µM]
< 60	COc1cc(C(=O)NC2CCN(C(=O)CCCOc3ccc(C4CCC(=O)NC4=O)cc3)CC2)c(F)cc1Nc1ncc2c(n1)N(C1CCCC1)CC(F)(F)C(=O)N2C (stereo not drawn) [Compound 3, 4-((9-cyclopentyl-7,7-difluoro-5-methyl-6-oxo-6,7,8,9-tetrahydro-5H-pyrimido[4,5-b][1,4]diazepin-2-yl)amino)-N-(1-(4-(4-(2,6-dioxopiperidin-3-yl)phenoxy)butanoyl)piperidin-4-yl)-2-fluoro-5-methoxybenzamide]	< 0.1	> 10
< 30	COc1cc(C(=O)NC2CCN(C(=O)CCCOc3cccc(C4CCC(=O)NC4=O)c3)CC2)ccc1Nc1ncc2c(n1)N(C1CCCC1)CC(F)(F)C(=O)N2C (stereo not drawn) [Compound 4, 4-((9-cyclopentyl-7,7-difluoro-5-methyl-6-oxo-6,7,8,9-tetrahydro-5H-pyrimido[4,5-b][1,4]diazepin-2-yl)amino)-N-(1-(4-(3-(2,6-dioxopiperidin-3-yl)phenoxy)butanoyl)piperidin-4-yl)-3-methoxybenzamide]	< 0.05	> 10
< 60	COc1cc(C(=O)NC2CCN(C(=O)CCN3CCN(c4ccc(C5CCC(=O)NC5=O)cc4)CC3)CC2)ccc1Nc1ncc2c(n1)N(C1CCCC1)CC(F)(F)C(=O)N2C (stereo not drawn) [Compound 5, 4-((9-cyclopentyl-7,7-difluoro-5-methyl-6-oxo-6,7,8,9-tetrahydro-5H-pyrimido[4,5-b][1,4]diazepin-2-yl)amino)-N-(1-(3-(4-(4-(2,6-dioxopiperidin-3-yl)phenyl)piperazin-1-yl)propanoyl)piperidin-4-yl)-3-methoxybenzamide]	< 0.03	> 10
< 60	COc1cc(C(=O)NC2CCN(C(=O)CCN3CCN(c4cccc(C5CCC(=O)NC5=O)c4)CC3)CC2)ccc1Nc1ncc2c(n1)N(C1CCCC1)CC(F)(F)C(=O)N2C (stereo not drawn) [Compound 6, 4-((9-cyclopentyl-7,7-difluoro-5-methyl-6-oxo-6,7,8,9-tetrahydro-5H-pyrimido[4,5-b][1,4]diazepin-2-yl)amino)-N-(1-(3-(4-(3-(2,6-dioxopiperidin-3-yl)phenyl)piperazin-1-yl)propanoyl)piperidin-4-yl)-3-methoxybenzamide]	< 0.03	> 10
< 30	COc1cc(C(=O)NC2CCC(N(C)CC3CCN(c4ccc(C5CCC(=O)NC5=O)cc4F)CC3)CC2)ccc1Nc1ncc2c(n1)N(C1CCCC1)CC(F)(F)C(=O)N2C (stereo not drawn) [Compound 7, 4-((9-cyclopentyl-7,7-difluoro-5-methyl-6-oxo-6,7,8,9-tetrahydro-5H-pyrimido[4,5-b][1,4]diazepin-2-yl)amino)-N-((1r,4r)-4-(((1-(4-(2,6-dioxopiperidin-3-yl)-2-fluorophenyl)piperidin-4-yl)methyl)(methyl)amino)cyclohexyl)-3-methoxybenzamide]	< 0.03	> 10
< 30	COc1cc(C(=O)NC2CCC(CN(C)C3CCN(c4ccc(C5CCC(=O)NC5=O)cc4F)CC3)CC2)ccc1Nc1ncc2c(n1)N(C1CCCC1)CC(F)(F)C(=O)N2C (stereo not drawn) [Compound 8, 4-((9-cyclopentyl-7,7-difluoro-5-methyl-6-oxo-6,7,8,9-tetrahydro-5H-pyrimido[4,5-b][1,4]diazepin-2-yl)amino)-N-((1r,4r)-4-(((1-(4-(2,6-dioxopiperidin-3-yl)-2-fluorophenyl)piperidin-4-yl)(methyl)amino)methyl)cyclohexyl)-3-methoxybenzamide]	< 0.03	> 10
